Results on 48 compounds are retold here after ChEMBL document CHEMBL1122903, “Synthesis, in vitro [3H]prazosin displacement, and in vivo activity of 3-aryl-4,5,6,7-tetrahydropyrazolo[4,3-c]pyridines, a new class of antihypertensive agents” (J Med Chem, 1985).

For assay [1], the system named is Rattus norvegicus. Briefly: Antihypertensive activity on spontaneously hypertensive rats when administered orally at a dose 50 mg/kg. The format is functional. The conditions noted are these: route oral.
The target of assay [2] is T1, Adrenergic receptor alpha-1 (Rattus norvegicus, UniProt P15823+P23944+P43140).
T1 sequence (P15823 whole entry): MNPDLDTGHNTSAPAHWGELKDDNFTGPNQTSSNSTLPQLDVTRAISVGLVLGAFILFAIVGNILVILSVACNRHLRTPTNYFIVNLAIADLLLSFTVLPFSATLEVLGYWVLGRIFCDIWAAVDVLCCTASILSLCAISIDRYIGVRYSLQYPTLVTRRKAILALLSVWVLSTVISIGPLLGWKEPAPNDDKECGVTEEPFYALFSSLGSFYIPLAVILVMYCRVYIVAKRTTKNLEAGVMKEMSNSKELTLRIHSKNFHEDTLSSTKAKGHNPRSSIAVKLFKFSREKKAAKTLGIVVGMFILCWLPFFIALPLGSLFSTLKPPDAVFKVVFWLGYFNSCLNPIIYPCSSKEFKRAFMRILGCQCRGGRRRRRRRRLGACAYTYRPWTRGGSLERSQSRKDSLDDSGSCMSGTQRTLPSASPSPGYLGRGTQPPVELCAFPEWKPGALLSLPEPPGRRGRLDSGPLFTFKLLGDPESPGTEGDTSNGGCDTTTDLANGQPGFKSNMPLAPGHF
T1 sequence (P23944 whole entry): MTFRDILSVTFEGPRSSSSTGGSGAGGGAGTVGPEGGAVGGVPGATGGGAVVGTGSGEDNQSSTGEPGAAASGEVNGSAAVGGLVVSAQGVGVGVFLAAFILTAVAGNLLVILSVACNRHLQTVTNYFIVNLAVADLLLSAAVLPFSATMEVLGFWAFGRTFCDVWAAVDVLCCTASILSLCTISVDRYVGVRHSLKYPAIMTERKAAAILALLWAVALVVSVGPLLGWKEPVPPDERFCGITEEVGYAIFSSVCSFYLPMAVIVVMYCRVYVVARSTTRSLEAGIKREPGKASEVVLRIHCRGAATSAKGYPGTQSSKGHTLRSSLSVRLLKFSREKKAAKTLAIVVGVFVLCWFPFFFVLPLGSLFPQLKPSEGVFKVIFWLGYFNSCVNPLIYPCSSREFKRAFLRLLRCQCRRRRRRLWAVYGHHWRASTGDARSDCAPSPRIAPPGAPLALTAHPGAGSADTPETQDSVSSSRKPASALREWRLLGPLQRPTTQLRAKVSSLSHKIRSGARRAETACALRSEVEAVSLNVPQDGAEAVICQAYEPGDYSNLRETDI
T1 sequence (P43140 whole entry): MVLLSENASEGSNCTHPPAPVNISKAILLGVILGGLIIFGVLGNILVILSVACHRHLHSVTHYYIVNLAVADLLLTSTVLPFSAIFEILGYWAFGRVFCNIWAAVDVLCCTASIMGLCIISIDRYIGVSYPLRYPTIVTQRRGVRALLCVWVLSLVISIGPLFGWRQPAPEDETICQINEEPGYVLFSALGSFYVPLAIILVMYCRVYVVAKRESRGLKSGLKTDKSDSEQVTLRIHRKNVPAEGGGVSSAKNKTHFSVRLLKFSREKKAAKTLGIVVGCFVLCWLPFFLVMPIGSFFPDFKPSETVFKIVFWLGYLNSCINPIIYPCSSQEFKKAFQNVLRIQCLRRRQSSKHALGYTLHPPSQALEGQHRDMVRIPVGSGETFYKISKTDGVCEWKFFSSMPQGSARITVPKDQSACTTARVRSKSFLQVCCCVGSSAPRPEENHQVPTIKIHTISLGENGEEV
The experiment in a line: Ability to displace [3H]prazosin from postsynaptic alpha-1 adrenergic receptor of rat in vitro. The format is protein assay.

Assay [3] has as its system Rattus norvegicus. The experiment in a line: Antihypertensive activity on spontaneously hypertensive rats, when administered orally at a dose 20 mg/kg. The class given is functional. The following applies: route oral.
The test system of assay [4] is Rattus norvegicus. The experiment in a line: Antihypertensive activity on spontaneously hypertensive rats, when administered intravenously at a dose 10 mg/kg. The class given is functional. The following applies: route intravenous.

Turning to `Cn1nc(-c2cccc(F)c2)c2c1CCNC2`, the Delta p in assay [1] turned out to be 0%. The Ki in assay [2] is > 3000 nM.

Consider `CCN1CCc2n[nH]c(-c3ccc(F)cc3)c2C1.O=C(O)CC(=O)O`, for which the Delta p in assay [1] is 0%. Further, in assay [2], the Ki was 3400 nM.

Consider `Cl.Fc1ccc(-c2nn(-c3ccc(F)cc3)c3c2CNCC3)cc1`, for which the Ki in assay [2] came out at 161 nM. Also, in assay [3], the Delta p is 0%.

Turning to `CCN1CCc2n[nH]c(-c3ccccc3)c2C1.Cl`, in assay [1], the Delta p is listed as 0%. The compound further showed a Ki in assay [2] of 1500 nM.

`Cl.Fc1ccc(-c2nn(Cc3ccccc3)c3c2CN(C2CCCC2)CC3)cc1`: the Delta p in assay [1] is reported as -18%. The compound further returned a Ki in assay [2] of 42.4 nM.

In turn, `Cc1ccc(-c2[nH]nc3c2CNCC3)cc1.Cl.Cl` had a Ki in assay [2] of 92.2 nM. Besides, the Delta p in assay [3] was 0%.

In turn, `CCCCCn1nc(-c2ccc(F)cc2)c2c1CCN(C)C2.CS(=O)(=O)O` displayed a Ki in assay [2] of 18.3 nM. Further, the Delta p in assay [3] is reported as -21%.

Turning to `COc1ccc(-c2[nH]nc3c2CNCC3)cc1OC`, the Delta p in assay [1] was 0%. Further, the Ki in assay [2] is > 3000 nM.

`CS(=O)(=O)O.Fc1ccc(-c2nn(CCCc3ccccc3)c3c2CNCC3)cc1`: in assay [4], the Delta p is recorded as -37%. Further, in assay [2], the Ki turned out to be 12.9 nM.

Consider `CN1CCc2n[nH]c(-c3ccccc3)c2C1.O=C(O)CC(O)(CC(=O)O)C(=O)O`, for which, in assay [1], the Delta p was 0%. The Ki in assay [2] is recorded as 1300 nM.

With `CS(=O)(=O)O.Cn1nc(-c2ccccc2)c2c1CCNC2`, the Delta p in assay [1] stood at 0%. The same compound came in with a Ki in assay [2] of 3290 nM.

In the case of `Fc1ccc(-c2[nH]nc3c2CNCC3)cc1`, the Delta p in assay [1] is -37%. For the same compound, the Ki in assay [2] is 69.2 nM.

On to `CCCn1nc(-c2ccc(F)cc2)c2c1CCN(C)C2.CS(=O)(=O)O`, for which, in assay [1], the Delta p is -25%. This compound also returned a Ki in assay [2] of 73.5 nM.

In the case of `CN1CCc2c(c(-c3ccc(F)cc3)nn2CCCc2ccccc2)C1.Cl`, the Delta p in assay [1] is listed as 0%. In assay [2], this compound came in with a Ki of 20.6 nM.

Consider `CN1CCc2c(c(-c3ccc(F)cc3)nn2Cc2ccccc2)C1.CS(=O)(=O)O`, for which the Delta p in assay [1] is listed as -18%. This compound also had a Ki in assay [2] of 21.2 nM.

As for `Cn1nc(-c2ccc(F)cc2)c2c1CCNC2`, the Delta p in assay [1] stood at 0%. In assay [2], this compound registered a Ki of 1060 nM.

Consider `Cc1ccc(S(=O)(=O)O)cc1.Cn1nc(-c2ccccc2F)c2c1CCNC2`, for which the Delta p in assay [1] is on record as 0%. In assay [2], the Ki is reported as > 3000 nM.

Consider `Fc1cccc(-c2[nH]nc3c2CNCC3)c1`, for which the Delta p in assay [1] was determined as 0%. In assay [2], the Ki was > 3000 nM.

Regarding `CC(c1ccccc1)n1nc(-c2ccc(F)cc2)c2c1CCNC2.CS(=O)(=O)O` (stereo unspecified), in assay [2], the Ki is recorded as 7.2 nM. In addition, the Delta p in assay [3] is on record as -15%.

On to `CC(C)N1CCc2c(c(-c3ccc(F)cc3)nn2Cc2ccccc2)C1`, for which the Delta p in assay [1] is reported as -20%. The Ki in assay [2] is given as 97.6 nM.

Regarding `Clc1cccc(-c2[nH]nc3c2CNCC3)c1`, the Delta p in assay [1] was determined as 0%. The Ki in assay [2] is > 3000 nM.

Consider `CCCCCn1nc(-c2ccc(F)cc2)c2c1CCNC2.CS(=O)(=O)O`, for which the inhibition constant Ki in assay [2] is listed as 8.7 nM. In assay [3], the Delta p was -20%.

With `CCCn1nc(-c2ccc(F)cc2)c2c1CCNC2.CS(=O)(=O)O`, the Delta p in assay [1] was -33%. The Ki in assay [2] was determined as 24.2 nM.

Regarding `CCCCn1nc(-c2ccc(F)cc2)c2c1CCNC2.CS(=O)(=O)O`, the Delta p in assay [4] is listed as -30%. The same compound yielded a Ki in assay [2] of 17.3 nM.

`CS(=O)(=O)O.Fc1ccc(-c2nn(CCc3ccccc3)c3c2CNCC3)cc1`: the Delta p in assay [1] was -15%. Also, the Ki in assay [2] is on record as 40.3 nM.

As to `Cc1ccc(-c2[nH]nc3c2CN(C)CC3)cc1.Cc1ccc(S(=O)(=O)O)cc1`, in assay [2], the Ki was found to be 249 nM. For the same compound, in assay [3], the Delta p was found to be 0%.

As to `Cn1nc(-c2cccc(Cl)c2)c2c1CCNC2`, the Delta p in assay [1] worked out at 0%. In addition, the Ki in assay [2] is listed as > 3000 nM.

For the compound `N#Cc1ccc(-c2[nH]nc3c2CNCC3)cc1`, in assay [1], the Delta p came out at 0%. For the same compound, the Ki in assay [2] was > 3000 nM.

As to `CCCCN1CCc2c(c(-c3ccc(F)cc3)nn2Cc2ccccc2)C1.Cl`, the Delta p in assay [1] was -16%. The compound also had a Ki in assay [2] of 119 nM.

`Cl.Cl.c1ccc(-c2[nH]nc3c2CNCC3)cc1`: the Delta p in assay [1] is given as -18%. In assay [2], this compound returned a Ki of 490 nM.

In the case of `CC(C)n1nc(-c2ccccc2)c2c1CCN(C)C2.CS(=O)(=O)O`, the Delta p in assay [1] came out at 0%. Also, the Ki in assay [2] is listed as 2870 nM.

`CN1CCc2c(c(-c3ccc(F)cc3)nn2-c2ccc(F)cc2)C1.CS(=O)(=O)O`: the Ki in assay [2] is 206 nM. For the same compound, in assay [3], the Delta p was 0%.

Regarding `CC(C)n1nc(-c2ccccc2)c2c1CCNC2`, the Delta p in assay [1] was determined as 0%. The compound also yielded a Ki in assay [2] of 1100 nM.

On to `Fc1ccccc1-c1[nH]nc2c1CNCC2`, for which the Delta p in assay [1] stood at 0%. For the same compound, in assay [2], the Ki is > 3000 nM.

As for `COc1ccc(-c2[nH]nc3c2CNCC3)cc1`, the Delta p in assay [1] is recorded as -15%. In assay [2], this compound returned a Ki of 448 nM.

Regarding `CN1CCc2n[nH]c(-c3ccc(F)cc3)c2C1`, in assay [2], the inhibition constant Ki came to 507 nM. Further, the Delta p in assay [3] was 0%.

`CCN1CCc2n[nH]c(-c3ccc(C)cc3)c2C1.O=C(O)CC(=O)O`: the Delta p in assay [1] came out at 0%. The same compound yielded a Ki in assay [2] of 350 nM.

Regarding `CN1CCc2c(c(-c3ccc(F)cc3)nn2CCc2ccccc2)C1`, in assay [1], the Delta p is recorded as 0%. The compound also yielded a Ki in assay [2] of 40.3 nM.

`CCn1nc(-c2ccc(F)cc2)c2c1CCNC2.CS(=O)(=O)O` had a Ki in assay [2] of 32.5 nM. Further, the Delta p in assay [3] is -37%.

`CCn1nc(-c2ccc(F)cc2)c2c1CCN(Cc1ccccc1)C2.CS(=O)(=O)O`: the Delta p in assay [1] is listed as -23%. In addition, the Ki in assay [2] is recorded as 2020 nM.

As to `CC(c1ccccc1)n1nc(-c2ccc(F)cc2)c2c1CCN(C)C2.Cl` (stereo unspecified), the inhibition constant Ki in assay [2] is 8.1 nM. The Delta p in assay [3] is -15%.

As for `CCCCCCn1nc(-c2ccc(F)cc2)c2c1CCN(C)C2.CS(=O)(=O)O`, in assay [1], the Delta p was -16%. In addition, the Ki in assay [2] stood at 15.2 nM.

On to `CCCCCCn1nc(-c2ccc(F)cc2)c2c1CCNC2.CS(=O)(=O)O`, for which the Delta p in assay [1] came to 0%. Besides, in assay [2], the Ki is given as 13 nM.

Regarding `CCN1CCc2n[nH]c(-c3ccc(OC)cc3)c2C1`, the Delta p in assay [1] is on record as 0%. For the same compound, the Ki in assay [2] is > 3000 nM.

In the case of `CCCCn1nc(-c2ccc(F)cc2)c2c1CCN(C)C2.CS(=O)(=O)O`, the Delta p in assay [1] is recorded as -18%. Besides, the Ki in assay [2] was found to be 32.8 nM.

Take `Cl.O=[N+]([O-])c1ccc(-c2[nH]nc3c2CNCC3)cc1`: the Delta p in assay [1] came out at 0%. Besides, the Ki in assay [2] was > 3000 nM.

Regarding `Cl.Cn1nc(-c2ccc(Cl)cc2)c2c1CCNC2`, in assay [1], the Delta p is on record as -26%. The compound further came in with a Ki in assay [2] of 190 nM.

As to `CN1CCc2n[nH]c(-c3ccc(Cl)cc3)c2C1.O=C(O)CC(O)(CC(=O)O)C(=O)O`, the Delta p in assay [1] is listed as 0%. Moreover, in assay [2], the Ki is listed as 2000 nM.
